From patent US6702803B2, “Multi-step drug dosage forms” (Delsys Pharmaceutical Corporation, priority 2000, dated 2004)

Test: Compatibility study of Drug A with polymeric films (chromatographic purity on storage)
Type: physicochemical
Details: HPMC film, HPMC/HPC blend film, polyvinyl alcohol film; 25°C/60% RH, 40°C/75% RH (closed and open bottle), 50°C; 2 to 12 weeks
Experimental: Compatibility studies were conducted to assess the compatibility of Drug A with several polymeric films, to determine an appropriate material for the substrate. The films studied were an HPMC film, an. HPMC/HPC blend film, and a polyvinyl alcohol film. Each film was cut into pieces approximately 0.5 cm square and a piece of each film was placed into a glass bottle. Approximately 500 mg of Drug A was added to each bottle. The bottles were closed with Teflon lined plastic caps. Bottles of Drug A and each of the films separately were prepared and used as controls. The controls and drug/polymer samples were stored in a closed chamber under the following conditions, and tested at the indicated time periods: A) 25° C.±2° C.; 60% RH±5%; tested at 2,4 and 12 weeks; B) 40° C.±2° C.; 75% RH±5%; tested at 2,4 and 12 weeks; C) 40° C.±2 S^C; 75% RH±5%, open bottle; tested at 2, 4 and 12 weeks; and D) 50° C.±2*C.; no humidity control; tested at 2,4, and 8 weeks. At each time point, the samples were tested for chromatographic purity. […] Several dosage forms were made, as outlined in Table 1. “ER” refers to the extended release portion. “HPMC, HPC” refers to a hydroxypropyrmethyl cellulose, hydroxypropyl cellulose copolymer. “PEO” refers to a polyethylene oxide polymer, “HPMC, PEG” refers to hydroxypropylmethyl cellulose containing polyethylene glycol (PEG) plasticizer.

- change in chromatographic purity of Drug A stored with polymer films, compared to control samples: no changes in purity
Structure (SMILES): Cc1nccn1CC1CCc2c(c3ccccc3n2C)C1=O (stereo not shown) [Drug A, 1,2,3,9-tetrahydro-9-methyl-3-[(2-methyl-1H-imidazol-1-yl)methyl]-4H-carbazol-4-one]
